A word on the EC50: it is the concentration giving half of the maximal effect.

Results on 16 compounds are retold here after EP1180991B1, “GAMBOGIC ACID DERIVATIVES AS ACTIVATORS OF CASPASES AND INDUCERS OF APOPTOSIS” (Cytovia, Inc., priority 1999, dated 2000).

The test system of data set [1] is T-47D. Nature of the data set: Caspase cascade activation by known antineoplastic compounds (Example 92). The following applies: 24 h; for fold induction at 10 µM: Homo sapiens, T47D, read-out: ratio of the net RFU value for test compounds to that of control samples (caspase cascade activation).
Description: (§5) The samples were mixed by agitation and then incubated at 37° C for 24 h in a 5% CO2-95% humidity incubator. […] The samples were mixed by agitation and incubated for 3 h at room temperature. […] After the 3 h incubation, the samples were read for fluorescence as above (T = 3 h).
(§6) The Relative Fluorescence Unit values (RFU) were used to calculate the sample readings as follows: RFU(T=3⁢hr) −Control RFU(T=0) = Net RFU(T=3⁢hr) [formula]
(§7) The activity in caspase cascade activation was determined by the ratio of the net RFU value for test compounds to that of control samples.
Data set [2] deals with PC-3. The description is as above. The following applies: for fold induction at 10 µM: Homo sapiens, PC-3, 24 h, read-out: ratio of the net RFU value for test compounds to that of control samples (caspase cascade activation).
Description: as §5, §6, §7
In the next data set the test system is HL-60. As to the kind of experiment: Caspase cascade activation assay (Example 90). The data set is classed as cell-based, human. The following applies: HL-60; 24 h incubation, 0.16 to 10 µM final; net RFU ratio to control. The method, then:
(§1) Human breast cancer cell lines T-47D and ZR-75-1, human prostate cancer cell line PC-3, human leukemia cancer cell line HL-60 and human non-transformed fibroblast cell line MRC-5 cells were grown according to media component mixtures designated by The American Type Culture Collection + 10% FCS (Life Technologies, Inc.), in a 5% CO2 -95% humidity incubator at 37° C. T-47D, ZR-75-1 and PC-3 cells were maintained at a cell density between 30 and 80% confluency and for HL-60 at a cell density of 0.1 to 0.6 x 10^6 cells/ml. Cells were harvested at 600xg and resuspended at 0.65 x 10^6 cells/ml into appropriate media + 10% FCS. […] The samples were mixed by agitation and incubated at room temperature.
(§2) The EC50 (nM) was determined by a sigmoidal dose-response calculation (Prism 2.0, GraphPad Software Inc.). Caspase Activity and Potency

The subject of a further data set is MRC-5. As to the kind of experiment: Caspase cascade activation assay (Example 90). The data set is classed as cell-based, human. The following applies: MRC-5 non-transformed fibroblasts, 24 h incubation; for caspase activity (Ratio): 0.16 to 10 µM final, net RFU ratio to control. Here is the method:
as §1, §2

Data set [3] concerns PC-3. As to the kind of experiment: Caspase cascade activation assay (Example 90). The data set is classed as cell-based, human. The settings on record: PC-3, 24 h incubation; for caspase activity (Ratio): 0.16 to 10 µM final, net RFU ratio to control; for EC50: Homo sapiens, caspase activation, read-out: EC50. The method, then: as §1, §2
For data set [4], the system named is T-47D. As to the kind of experiment: Caspase cascade activation assay (Example 90). The data set is classed as cell-based, human. The following applies: T-47D, 24 h incubation; for caspase activity (Ratio): 0.16 to 10 µM final, net RFU ratio to control; for EC50: Homo sapiens, T47D, caspase activation, read-out: EC50. The method, then: as §1, §2
The test system of a further data set is ZR-75-1. As to the kind of experiment: Caspase cascade activation assay (Example 90). Type of data set: cell-based, human. The following applies: ZR-75-1, 24 h incubation; for caspase activity (Ratio): 0.16 to 10 µM final, net RFU ratio to control. Here is the method: as §1, §2
The next data set relates to KB. The following applies: Lin et al. 1993; cited from earlier work.
The subject of the next data set is KB-V1. The settings on record: Lin et al. 1993; cited from earlier work.
A further data set concerns PC3 cells. Nature of the data set: PARP cleavage, western blot (Example 98). Type of data set: cell-based, human. The following applies: 1 µM, 2 h and 4 h (Fig. 5D). The method, then: (§3) Cleavage of the enzyme poly(ADP)ribose polymerase (PARP) by caspase-3 and related proteases is considered to be one of the molecular hallmarks of caspase-mediated apoptosis. Therefore, the ability of gambogic acid to induce PARP cleavage in four different human tumor cell lines (Jurkat cells, HL-60 cells, T47D cells and PC3 cells) was determined.
(§4) […] Control cultures were treated with a drug vehicle (DMSO), or the well-characterized apoptosis inducer, staurosporine. At the end of the apoptosis induction period, the cells were harvested, washed once with PBS, quick-frozen on dry ice, and stored at -80° C. The cells were then lysed in a standard immunoblotting lysis buffer and samples of the lysates were electrophoresed on 4% to 20% gradient polyacrylamide gels. The proteins in the gels were then transferred to PVDF membranes and probed with a commercially-available rabbit polyclonal antibody to PARP.
On the technique in general: Immunoblotting shows a protein as a band on a membrane.

In a further data set the test system is T47D cells. As to the kind of experiment: PARP cleavage, western blot (Example 98). The data set is classed as cell-based, human. The following applies: 1 µM, 2 h and 4 h (Fig. 5C). Here is the method: as §3, §4

As to `O=c1[nH]cc(F)c(=O)[nH]1` [5-fluorouracil], the fold induction at 10 µM worked out at 0.8 in the data set on T-47D [1] and 0.7 with PC-3 [2].
`CC[C@@]1(O)C(=O)OCc2c1cc1n(c2=O)Cc2cc3ccccc3nc2-1` [Camptothecin]: the fold induction at 10 µM in the data set with T-47D [1] was found to be 0.7; in the data set on PC-3 [2], 0.6.
`N.N.[Cl][Pt][Cl]` [Cisplatin]: the “ratio of the net RFU value for test compounds to that of control samples (caspase cascade activation)” value stood at 1.1 with T-47D [1] (T-47D, 10 µM final, ratio around 1 = not an efficient activator) and 0.9 in the data set on PC-3 [2] (PC-3, 10 µM final, 24 h, ratio around 1 = not an efficient activator).
Take `COc1cccc2c1C(=O)c1c(O)c3c(c(O)c1C2=O)C[C@@](O)(C(=O)CO)C[C@@H]3O[C@H]1C[C@H](N)[C@H](O)[C@H](C)O1` [Doxorubicin]: the fold induction at 10 µM in the data set with T-47D [1] came to 1.3; with PC-3 [2], 1.1.
The corresponding values for `COc1cc([C@@H]2c3cc4c(cc3[C@@H](O[C@@H]3O[C@@H]5CO[C@@H](C)O[C@H]5[C@H](O)[C@H]3O)[C@H]3COC(=O)[C@H]23)OCO4)cc(OC)c1O` [Etoposide] are 1 and 0.8.
For `CC(C)=CCC/C(C)=C/Cc1c(O)c(CC=C(C)C)c2c(c1O)C(=O)C1=CC3CC4C(C)(C)OC(C/C=C(/C)C(=O)O)(C3=O)C14O2` (stereo not drawn) [Example 2, Gambogenic Acid], the “caspase activity (Ratio)” value was 5.6 with HL-60; 22.4 in the data set with MRC-5; 2.9 with PC-3 [3]; 16.9 with T-47D [4]; 14.2 in the data set on ZR-75-1.
For the compound `CC(C)=CCC/C(C)=C/Cc1c(O)c(CC=C(C)C)c2c(c1O)C(=O)C1=CC3CC4C(C)(C)OC(C/C=C(/C)C=O)(C3=O)C14O2` (stereo not drawn) [Example 3, Gambogenin], the figures for the EC50 with PC-3 [3] and in the data set on T-47D [4] were 1700 nM and 1000 nM, respectively. Also, the entries for the “caspase activity (Ratio)” value in the data set with PC-3 [3] and in the data set on T-47D [4] were 2.9 and 7.0, respectively.
For `CC(C)=CCCC1(C)C=Cc2c(O)c3c(c(CC=C(C)C)c2O1)OC12C(=CC4CC1C(C)(C)OC2(C/C=C(/C)C(=O)N1CCCCC1)C4=O)C3=O` (stereo not drawn) [Example 5, Gambogyl Piperidine], the “caspase activity (Ratio)” value in the data set with HL-60 turned out to be 5.2; in the data set with MRC-5, 12.6; with PC-3 [3], 2.7; in the data set on T-47D [4], 13.9; with ZR-75-1 it was 14.3.
For `COC(=O)/C(C)=C\CC12OC(C)(C)C3CC(C=C4C(=O)c5c(OC)c6c(c(CC=C(C)C)c5OC431)OC(C)(CCC=C(C)C)C=C6)C2=O` (stereo not drawn) [Example 6, Methyl-6-methoxy-gambogate], the “caspase activity (Ratio)” value turned out to be 4.5 with PC-3 [3] and 12.0 in the data set on T-47D [4].
Consider `COc1c2c(c(CC=C(C)C)c3c1C(=O)C1=CC4CC5C(C)(C)OC(C/C=C(/C)C(=O)N6CCCCC6)(C4=O)C15O3)OC(C)(CCC=C(C)C)C=C2` (stereo not drawn) [Example 7, 6-Methoxy-gambogyl Piperidine], for which the EC50 in the data set with MRC-5 (Homo sapiens, MRC5, caspase activation, read-out: EC50) came to 1200 nM; with PC-3 [3], 1700 nM; in the data set with T-47D [4] it was 830 nM; in the data set on ZR-75-1 (Homo sapiens, caspase activation, read-out: EC50), 1650 nM.
In the case of `CN(Cc1cnc2nc(N)nc(N)c2n1)c1ccc(C(=O)N[C@@H](CCC(=O)O)C(=O)O)cc1` [Methotrexate], the fold induction at 10 µM in the data set on T-47D [1] was found to be 0.8; in the data set on PC-3 [2], 0.7.
With `CC(=O)O[C@H]1C(=O)[C@@]2(C)[C@H]([C@H](OC(=O)c3ccccc3)[C@]3(O)C[C@H](OC(=O)[C@H](O)[C@@H](NC(=O)c4ccccc4)c4ccccc4)C(C)=C1C3(C)C)[C@]1(OC(C)=O)CO[C@@H]1C[C@@H]2O` [Taxol], the fold induction at 10 µM in the data set on T-47D [1] was found to be 0.9; in the data set on PC-3 [2], 0.7.
`CC[C@]1(O)C[C@@H]2CN(CCc3c([nH]c4ccccc34)[C@@](C(=O)OC)(c3cc4c(cc3OC)N(C)[C@H]3[C@@](O)(C(=O)OC)[C@H](OC(C)=O)[C@]5(CC)C=CCN6CC[C@]43[C@@H]65)C2)C1` [Vinblastine]: the fold induction at 10 µM in the data set on T-47D [1] came out at 0.9; in the data set on PC-3 [2], 0.8.
On to `CC(C)=CCc1c2c(c(O)c3c1OC14C(=CC5CC1C(C)(C)OC4(C/C=C(\C)CO)C5=O)C3=O)C=CC(C)(C)O2` (stereo not drawn) [isomorellinol, reference compound], for which the cytotoxicity entry in the data set on KB and with KB-V1 was “cytotoxic” in each case.
For `CN[C@@H]1C[C@H]2O[C@@](C)([C@@H]1OC)n1c3ccccc3c3c4c(c5c6ccccc6n2c5c31)C(=O)NC4` [staurosporine, reference compound], the PARP cleavage entry in the data set with PC3 cells and in the data set on T47D cells was “no cleavage of PARP” throughout.
Isogambogic Acid [Example 18]: the cytotoxicity entry in the data set with KB and with KB-V1 was “cytotoxic” in each case.
